For data set [1], the system named is Adult Ctenocephalides felis. The data set is described as follows: Test on cat fleas / oral absorption. The format is in vivo. The conditions noted are these: after 24 hours. On the procedure: Test on cat fleas/oral absorption
Test animals: Adult Ctenocephalides felis
Solvent: Dimethylsulfoxide (DMSO)
20 μl of this formulation are added to 4 ml of citrated cow's blood and stirred.
20 starved adult fleas (of “Georgi” species of Ctenocephalides felis) are introduced into a chamber (of a diameter of 5 cm) which is sealed with gauze at the top and bottom. A metal cylinder, whose base is sealed with parafilm, is placed on the chamber. […] Whereas the blood is heated to 37° C. a temperature of 25° C. is adjusted in the region of the flea chambers. Controls are mixed with the same volume of DMSO without the addition of any of the compounds. The test are repeated three times.
After 24 hours the mortality is determined in %.

The test system of data set [2] is Nematospiroides dubius. In words: In vivo experiments with Nematospiroides dubius in mice. The conditions noted are these: orally 4 times, mice infected with N. dubius larvae. Also on record: key: 3 represents cure (no parasites detectable); 2 effective (<20% of parasites remaining); 1 trace effect (< of parasites remaining); 0 ineffective (>50% of parasites remaining).

Data set [3] deals with Adult Musca domestica of WHO(N) species. The data set is described as follows: Filter test on flies (Musca domestica), ingestion/contact method. Type of data set: in vivo. The conditions noted are these: time of reading not stated (1, 3, 5 and 24 hours). On the procedure:
Filter test on flies (Musca domestica)—ingestion/contact method
Test animals: Adult Musca domestica of WHO(N) species
In order to prepare a suitable formulation a solution of active compound is prepared froom 20 mg of active compound and 1 ml of DMSO. The active compound solution is diluted with water to the concentration required in each case.
2 ml of this preparation of active compound are pipetted onto filter paper discs (of a diameter of 9.5 cm) contained in Petri dishes of the appropriate size. After drying the filter discs, 100 μl of the active compound formulation and 400 μl of a sugar solution are poured onto a block of household sponge cloth measuring 1 cm^2 and placed in a blister well on the filter disc. 25 CO2-intoxicated test animals are transferred to the Petri dishes and covered.
After 1, 3, 5 and 24 hours the activity of the active compound preparation is determined. 100% means that all of the flies have been destroyed; 0% means that none of the flies have been destroyed.

Here are results for two compounds from patent US6605595B1, “Avermectin derivatives” (The Kitasato Institute, priority 1999, dated 2003).

For the compound `CCC(C)C1OC2(C=CC1C)CC1CC(CC=C(C)C(OC3CC(OC)C(OC4CC(OC)C(=CC(=O)O)C(C)O4)C(C)O3)C(C)C=CC=C3COC4C(=NO)C(C)=CC(C(=O)O1)C34O)O2` (stereo not drawn) [Compound 58], the mortality of fleas in data set [1] (10 ppm in citrated cow's blood) worked out at 73%; in data set [1] (100 ppm in citrated cow's blood), 100%. In addition, the “anthelmintic activity score (scale 0-3)” value in data set [2] (0.5 mg/kg) and in data set [2] (1 mg/kg) was 3 each time.
Consider `CCC(C)C1OC2(C=CC1C)CC1CC(CC=C(C)C(OC3CC(OC)C(OC4CC(OC)C(=CCNOC)C(C)O4)C(C)O3)C(C)C=CC=C3COC4C(O)C(C)=CC(C(=O)O1)C34O)O2` (stereo not drawn) [Compound 69], for which the “activity (100% = all of the flies destroyed)” value in data set [3] (10 ppm) was 50%; in data set [3] (100 ppm), 100%.
